#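 Results reflect a 48-hour exposure of cells in 96-well plates to compound at five concentrations. The concentration for full growth arrest is given as TGI.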
# Experiments:
# Test in all cases: NCI-60 cell line screen, 48 h
# UACC-257 melanoma = tested on: UACC-257 melanoma
# MDA-MB-435 = tested on: MDA-MB-435
# EKVX NSCLC = tested on: EKVX NSCLC
# HOP-92 NSCLC = tested on: HOP-92 NSCLC
# LOX IMVI melanoma = tested on: LOX IMVI melanoma
# NCI-H226 lung = tested on: NCI-H226 lung
# SR leukemia = tested on: SR leukemia
# NCI-H522 lung = tested on: NCI-H522 lung
# T-47D breast = tested on: T-47D breast
# U251 CNS = tested on: U251 CNS
# SK-MEL-2 melanoma = tested on: SK-MEL-2 melanoma
# SK-MEL-28 melanoma = tested on: SK-MEL-28 melanoma
# UACC-62 melanoma = tested on: UACC-62 melanoma
# BT-549 breast = tested on: BT-549 breast
# OVCAR-8 ovarian = tested on: OVCAR-8 ovarian
# SK-MEL-5 melanoma = tested on: SK-MEL-5 melanoma
# SN12C renal = tested on: SN12C renal
# HT29 colon = tested on: HT29 colon
# 786-0 renal = tested on: 786-0 renal
# NCI-H460 lung = tested on: NCI-H460 lung
# SF-295 CNS = tested on: SF-295 CNS
# HS 578T breast = tested on: HS 578T breast
# SK-OV-3 ovarian = tested on: SK-OV-3 ovarian
# NCI-H23 lung = tested on: NCI-H23 lung
# HOP-62 NSCLC = tested on: HOP-62 NSCLC
# K-562 leukemia = tested on: K-562 leukemia
# HCT-15 colon = tested on: HCT-15 colon
# NCI/ADR-RES ovarian = tested on: NCI/ADR-RES ovarian
# SF-268 CNS = tested on: SF-268 CNS
# CAKI-1 renal = tested on: CAKI-1 renal
# OVCAR-5 ovarian = tested on: OVCAR-5 ovarian
# SW-620 colon = tested on: SW-620 colon
# A549 NSCLC = tested on: A549 NSCLC
# OVCAR-3 ovarian = tested on: OVCAR-3 ovarian
# UO-31 renal = tested on: UO-31 renal
# PC-3 prostate = tested on: PC-3 prostate
# SNB-19 CNS = tested on: SNB-19 CNS
# COLO 205 colon = tested on: COLO 205 colon
# RXF 393 renal = tested on: RXF 393 renal
# M14 melanoma = tested on: M14 melanoma
# MALME-3M melanoma = tested on: MALME-3M melanoma
# MDA-MB-231 breast = tested on: MDA-MB-231 breast
# MOLT-4 leukemia = tested on: MOLT-4 leukemia
# DU-145 prostate = tested on: DU-145 prostate
# CCRF-CEM leukemia = tested on: CCRF-CEM leukemia
# HCC-2998 colon = tested on: HCC-2998 colon
# TK-10 renal = tested on: TK-10 renal
# SNB-75 CNS = tested on: SNB-75 CNS
# RPMI-8226 leukemia = tested on: RPMI-8226 leukemia
# HCT-116 colon = tested on: HCT-116 colon
# SF-539 CNS = tested on: SF-539 CNS
# MDA-N = tested on: MDA-N
# OVCAR-4 ovarian = tested on: OVCAR-4 ovarian
# HL-60(TB) leukemia = tested on: HL-60(TB) leukemia
# MCF7 breast = tested on: MCF7 breast
# KM12 colon = tested on: KM12 colon
# ACHN renal = tested on: ACHN renal
# IGROV1 ovarian = tested on: IGROV1 ovarian
# A498 renal = tested on: A498 renal
structure (smiles),measurement,setting,value
Clc1ccc(OCC2NC3CCC2CC3)cn1 (stereo not given),TGI,UACC-257 melanoma,36 µM
same,TGI,MDA-MB-435,43.4 µM
same,TGI,EKVX NSCLC,60.6 µM
same,TGI,HOP-92 NSCLC,> 100 µM
same,TGI,LOX IMVI melanoma,33.4 µM
same,TGI,NCI-H226 lung,> 100 µM
same,TGI,SR leukemia,44.6 µM
same,TGI,NCI-H522 lung,40.1 µM
same,TGI,T-47D breast,> 100 µM
same,TGI,U251 CNS,30.7 µM
same,TGI,SK-MEL-2 melanoma,33.4 µM
same,TGI,SK-MEL-28 melanoma,> 100 µM
same,TGI,UACC-62 melanoma,39.3 µM
same,TGI,BT-549 breast,> 100 µM
same,TGI,OVCAR-8 ovarian,> 100 µM
same,TGI,SK-MEL-5 melanoma,31.8 µM
same,TGI,SN12C renal,96.6 µM
same,TGI,HT29 colon,33.3 µM
same,TGI,786-0 renal,36.7 µM
same,TGI,NCI-H460 lung,55.1 µM
same,TGI,SF-295 CNS,68.8 µM
same,TGI,HS 578T breast,> 100 µM
same,TGI,SK-OV-3 ovarian,> 100 µM
same,TGI,NCI-H23 lung,> 100 µM
same,TGI,HOP-62 NSCLC,67.1 µM
same,TGI,K-562 leukemia,41.4 µM
same,TGI,HCT-15 colon,45.5 µM
same,TGI,NCI/ADR-RES ovarian,> 100 µM
same,TGI,SF-268 CNS,> 100 µM
same,TGI,CAKI-1 renal,> 100 µM
same,TGI,OVCAR-5 ovarian,> 100 µM
same,TGI,SW-620 colon,57.1 µM
same,TGI,A549 NSCLC,> 100 µM
same,TGI,OVCAR-3 ovarian,> 100 µM
same,TGI,UO-31 renal,6.06 µM
same,TGI,PC-3 prostate,78.3 µM
same,TGI,SNB-19 CNS,77.1 µM
same,TGI,COLO 205 colon,32.4 µM
same,TGI,RXF 393 renal,> 100 µM
same,TGI,M14 melanoma,36.5 µM
same,TGI,MALME-3M melanoma,39.6 µM
same,TGI,MDA-MB-231 breast,47.8 µM
same,TGI,MOLT-4 leukemia,47.5 µM
same,TGI,DU-145 prostate,> 100 µM
same,TGI,CCRF-CEM leukemia,77 µM
same,TGI,HCC-2998 colon,32.5 µM
same,TGI,TK-10 renal,> 100 µM
same,TGI,SNB-75 CNS,> 100 µM
same,TGI,RPMI-8226 leukemia,32.5 µM
same,TGI,HCT-116 colon,35.9 µM
same,TGI,SF-539 CNS,38.5 µM
same,TGI,MDA-N,33.5 µM
same,TGI,OVCAR-4 ovarian,> 100 µM
same,TGI,HL-60(TB) leukemia,51.9 µM
same,TGI,MCF7 breast,34.8 µM
same,TGI,KM12 colon,35.3 µM
same,TGI,ACHN renal,> 100 µM
same,TGI,IGROV1 ovarian,> 100 µM
Cc1ccc2c(c1C)C(=O)C1(C2)Cc2ccc3c(c2C1=O)CCC3 (stereo not given),TGI,UACC-257 melanoma,> 100 µM
same,TGI,MDA-MB-435,> 100 µM
same,TGI,EKVX NSCLC,> 100 µM
same,TGI,HOP-92 NSCLC,> 100 µM
same,TGI,NCI-H226 lung,> 100 µM
same,TGI,SR leukemia,> 100 µM
same,TGI,NCI-H522 lung,> 100 µM
same,TGI,T-47D breast,> 100 µM
same,TGI,U251 CNS,> 100 µM
same,TGI,SK-MEL-2 melanoma,> 100 µM
same,TGI,SK-MEL-28 melanoma,> 100 µM
same,TGI,UACC-62 melanoma,> 100 µM
same,TGI,BT-549 breast,> 100 µM
same,TGI,OVCAR-8 ovarian,> 100 µM
same,TGI,SK-MEL-5 melanoma,> 100 µM
same,TGI,SN12C renal,> 100 µM
same,TGI,HT29 colon,> 100 µM
same,TGI,786-0 renal,> 100 µM
same,TGI,NCI-H460 lung,> 100 µM
same,TGI,SF-295 CNS,> 100 µM
same,TGI,HS 578T breast,> 100 µM
same,TGI,SK-OV-3 ovarian,> 100 µM
same,TGI,NCI-H23 lung,> 100 µM
same,TGI,K-562 leukemia,> 100 µM
same,TGI,HCT-15 colon,> 100 µM
same,TGI,NCI/ADR-RES ovarian,> 100 µM
same,TGI,SF-268 CNS,> 100 µM
same,TGI,CAKI-1 renal,> 100 µM
same,TGI,OVCAR-5 ovarian,> 100 µM
same,TGI,SW-620 colon,> 100 µM
same,TGI,A549 NSCLC,> 100 µM
same,TGI,OVCAR-3 ovarian,> 100 µM
same,TGI,UO-31 renal,> 100 µM
same,TGI,PC-3 prostate,> 100 µM
same,TGI,SNB-19 CNS,> 100 µM
same,TGI,COLO 205 colon,> 100 µM
same,TGI,RXF 393 renal,> 100 µM
same,TGI,M14 melanoma,> 100 µM
same,TGI,MALME-3M melanoma,> 100 µM
same,TGI,MDA-MB-231 breast,> 100 µM
same,TGI,MOLT-4 leukemia,> 100 µM
same,TGI,DU-145 prostate,> 100 µM
same,TGI,CCRF-CEM leukemia,> 100 µM
same,TGI,HCC-2998 colon,> 100 µM
same,TGI,TK-10 renal,> 100 µM
same,TGI,SNB-75 CNS,> 100 µM
same,TGI,RPMI-8226 leukemia,> 100 µM
same,TGI,HCT-116 colon,> 100 µM
same,TGI,SF-539 CNS,> 100 µM
same,TGI,MDA-N,> 100 µM
same,TGI,OVCAR-4 ovarian,> 100 µM
same,TGI,A498 renal,> 100 µM
same,TGI,HL-60(TB) leukemia,> 100 µM
same,TGI,MCF7 breast,> 100 µM
same,TGI,KM12 colon,> 100 µM
same,TGI,ACHN renal,> 100 µM
same,TGI,IGROV1 ovarian,> 100 µM
